Patent publication US20260317312A1, “ISOXAZOLIDINES AS RIPK1 INHIBITORS AND USE THEREOF” (GENZYME CORPORATION, priority 2023, published 2026)

Experiments:
[1] = biological target: T1, hRIPK1 (aa 1-375) fusion protein (Homo sapiens, UniProt Q13546); assay: Receptor-Interacting Protein Kinase 1 inhibition, ADP Glo assay (conversion of ATP to ADP due to autophosphorylation); format: biochemical; settings: ATP 50 μM, 30 min preincubation, 240 min incubation, room temperature, DMSO 1%
T1 construct: hRIPK1 (aa 1-375) fusion protein
T1 sequence (Q13546 1-375): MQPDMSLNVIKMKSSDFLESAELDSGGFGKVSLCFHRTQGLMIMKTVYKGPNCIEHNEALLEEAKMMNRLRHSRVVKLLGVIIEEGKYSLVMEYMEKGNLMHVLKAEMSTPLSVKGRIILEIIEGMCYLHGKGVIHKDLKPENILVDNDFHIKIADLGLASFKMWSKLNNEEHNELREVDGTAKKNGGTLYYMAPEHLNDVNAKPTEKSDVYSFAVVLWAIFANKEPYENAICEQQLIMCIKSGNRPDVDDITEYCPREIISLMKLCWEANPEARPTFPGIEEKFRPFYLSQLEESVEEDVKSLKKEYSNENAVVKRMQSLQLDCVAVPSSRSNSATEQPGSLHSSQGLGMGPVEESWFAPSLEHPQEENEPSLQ
Procedure, shortened: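 hRIPK1 (aa 1-375) fusion protein (3.6 μg/ml final) was preincubated 30 min at rt with compound (33300-1.69 nM, 1% DMSO), then 50 μM ATP was added for 240 min at rt. ADP from autophosphorylation was measured by ADP-Glo luminescence and curves fitted by nonlinear regression.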

U937 cells = assay: Cellular assay in U937 cells to measure activity of RIPK1-inhibitors on cell death (necroptosis); format: cell-based; settings: Homo sapiens, U-937, TNFα/zVAD.fmk induced cell death (necroptosis), overnight (18 to 24 hrs), 37° C., MTS readout

Compound | IC50 [1] [nM] | IC50 (U937 cells) [nM]
N#Cc1cc(F)cc(OC[C@H]2CC[C@@H](C(=O)N3OCC[C@H]3c3cc(F)cc(F)c3)CC2)c1 [Compound 53, cis-3-((4-((S)-3-(3,5-difluorophenyl)isoxazolidine-2-carbonyl)cyclohexyl)methoxy)-5-fluorobenzonitrile] | 18 | 17
NC(=O)c1cc(OC[C@H]2CC[C@@H](C(=O)N3OCC[C@H]3c3cc(F)cc(F)c3)CC2)ncn1 [Compound 54, cis-6-((4-((S)-3-(3,5-difluorophenyl)isoxazolidine-2-carbonyl)cyclohexyl)methoxy)pyrimidine-4-carboxamide] | 80 | 364
N#Cc1cc(OC[C@H]2CC[C@@H](C(=O)N3OCC[C@H]3c3cc(F)cc(F)c3)CC2)ncn1 [Compound 55, cis-6-((4-((S)-3-(3,5-difluorophenyl)isoxazolidine-2-carbonyl)cyclohexyl)methoxy)pyrimidine-4-carbonitrile] | 56 | 1530
O=C([C@H]1CC[C@@H](COc2cc(Cl)ncn2)CC1)N1OCC[C@H]1c1cc(F)cc(F)c1 [Compound 56, cis-(4-(((6-chloropyrimidin-4-yl)oxy)methyl)cyclohexyl)((S)-3-(3,5-difluorophenyl)isoxazolidin-2-yl)methanone] | 47 | 125
CC1(C)OC(=O)N(c2ccc(Cl)c(OC[C@H]3CC[C@H](C(=O)N4OCC[C@H]4c4cc(F)cc(F)c4)CC3)c2)C1=O [Compound 57, trans-3-(4-chloro-3-((4-((S)-3-(3,5-difluorophenyl)isoxazolidine-2-carbonyl)cyclohexyl)methoxy)phenyl)-5,5-dimethyloxazolidine-2,4-dione] | 38 | 37
O=C1CCC(=O)N1c1ccc(Cl)c(OC[C@H]2CC[C@H](C(=O)N3OCC[C@H]3c3cc(F)cc(F)c3)CC2)c1 [Compound 58, trans-1-(4-chloro-3-((4-((S)-3-(3,5-difluorophenyl)isoxazolidine-2-carbonyl)cyclohexyl)methoxy)phenyl)pyrrolidine-2,5-dione] | 44 | 104
CC1(C)OC(=O)N(c2ccc(F)c(OC[C@H]3CC[C@H](C(=O)N4OCC[C@H]4c4cc(F)cc(F)c4)CC3)c2)C1=O [Compound 59, trans-3-(3-((4-((S)-3-(3,5-difluorophenyl)isoxazolidine-2-carbonyl)cyclohexyl)methoxy)-4-fluorophenyl)-5,5-dimethyloxazolidine-2,4-dione] | 29 | 30
O=C1CCCN1c1ccc(Cl)c(OC[C@H]2CC[C@H](C(=O)N3OCC[C@H]3c3cc(F)cc(F)c3)CC2)c1 [Compound 60, trans-1-(4-chloro-3-((4-((S)-3-(3,5-difluorophenyl)isoxazolidine-2-carbonyl)cyclohexyl)methoxy)phenyl)pyrrolidin-2-one] | 76 | 112
N#Cc1cc(F)cc(O[C@H]2C[C@@H](C(=O)N3OCC[C@H]3c3cc(F)cc(F)c3)C2)c1 [Compound 61, cis-3-(3-((S)-3-(3,5-difluorophenyl)isoxazolidine-2-carbonyl)cyclobutoxy)-5-fluorobenzonitrile] | 54 | 126
Cc1cc(C)n(-c2ccc(OC[C@H]3CC[C@H](C(=O)N4OCC[C@H]4c4cc(F)cc(F)c4)CC3)c(F)c2)n1 [Compound 62, trans-((S)-3-(3,5-difluorophenyl)isoxazolidin-2-yl)(4-((4-(3,5-dimethyl-1H-pyrazol-1-yl)-2-fluorophenoxy)methyl)cyclohexyl)methanone] | 28 | 34
CN1CC(=O)N(c2ccc(Cl)c(OC[C@H]3CC[C@H](C(=O)N4OCC[C@H]4c4cc(F)cc(F)c4)CC3)c2)C1=O [Compound 63, trans-3-(4-chloro-3-((4-((S)-3-(3,5-difluorophenyl)isoxazolidine-2-carbonyl)cyclohexyl)methoxy)phenyl)-1-methylimidazolidine-2,4-dione] | 44 | 45
Cc1nnc(C)n1-c1ccc(F)c(OC[C@H]2CC[C@H](C(=O)N3OCC[C@H]3c3cc(F)cc(F)c3)CC2)c1 [Compound 64, trans-((S)-3-(3,5-difluorophenyl)isoxazolidin-2-yl)(4-((5-(3,5-dimethyl-4H-1,2,4-triazol-4-yl)-2-fluorophenoxy)methyl)cyclohexyl)methanone] | 56 | 529
N#Cc1cc(O[C@H]2C[C@@H](C(=O)N3OCC[C@H]3c3cc(F)cc(F)c3)C2)ccc1F [Compound 65, cis-5-(3-((S)-3-(3,5-difluorophenyl)isoxazolidine-2-carbonyl)cyclobutoxy)-2-fluorobenzonitrile] | 18 | 49
NS(=O)(=O)c1cccc(OC[C@H]2CC[C@H](C(=O)N3OCC[C@H]3c3cc(F)cc(F)c3)CC2)c1 [Compound 66, trans-3-((4-((S)-3-(3,5-difluorophenyl)isoxazolidine-2-carbonyl)cyclohexyl)methoxy)benzenesulfonamide] | 35 | 8

More lines, main results first:

IC50 [1] [nM] | Compound | IC50 (U937 cells) [nM]
46 | Cc1nnc(C)n1-c1ccc(OC[C@H]2CC[C@H](C(=O)N3OCC[C@H]3c3cc(F)cc(F)c3)CC2)c(F)c1 [Compound 67, trans-((S)-3-(3,5-difluorophenyl)isoxazolidin-2-yl)(4-((4-(3,5-dimethyl-4H-1,2,4-triazol-4-yl)-2-fluorophenoxy)methyl)cyclohexyl)methanone] | 128
19 | Cn1ccn(-c2ccc(OC[C@H]3CC[C@H](C(=O)N4OCC[C@H]4c4cc(F)cc(F)c4)CC3)c(F)c2)c1=O [Compound 68, trans-1-(4-((4-((S)-3-(3,5-difluorophenyl)isoxazolidine-2-carbonyl)cyclohexyl)methoxy)-3-fluorophenyl)-3-methyl-1,3-dihydro-2H-imidazol-2-one] | 8
26 | O=C([C@H]1C[C@@H](n2cnc3cc(F)ccc32)C1)N1OCC[C@H]1c1cc(F)cc(F)c1 [Compound 69, cis-((S)-3-(3,5-difluorophenyl)isoxazolidin-2-yl)(3-(5-fluoro-1H-benzo[d]imidazol-1-yl)cyclobutyl)methanone] | 35
39 | N#Cc1cc(F)cc([C@@H]2CCON2C(=O)[C@H]2C[C@@H](n3cnc4cc(F)ccc43)C2)c1 [Compound 70, cis-3-fluoro-5-((S)-2-(3-(5-fluoro-1H-benzo[d]imidazol-1-yl)cyclobutane-1-carbonyl)isoxazolidin-3-yl)benzonitrile] | 349
14 | N#Cc1cccc(OC[C@H]2CC[C@H](C(=O)N3OCC[C@H]3c3cncc(C#N)c3)CC2)c1 [Compound 71, trans-5-((S)-2-(4-((3-cyanophenoxy)methyl)cyclohexane-1-carbonyl)isoxazolidin-3-yl)nicotinonitrile] | 6
15 | N#Cc1cncc([C@@H]2CCON2C(=O)[C@H]2CC[C@H](COc3ccc(F)c(C#N)c3)CC2)c1 [Compound 72, trans-5-((S)-2-(4-((3-cyano-4-fluorophenoxy)methyl)cyclohexane-1-carbonyl)isoxazolidin-3-yl)nicotinonitrile] | 13
29 | N#Cc1cncc([C@@H]2CCON2C(=O)[C@H]2CC[C@H](COc3cccc(C(N)=O)c3)CC2)c1 [Compound 73, trans-3-((4-((S)-3-(5-cyanopyridin-3-yl)isoxazolidine-2-carbonyl)cyclohexyl)methoxy)benzamide] | 26
24 | N#Cc1cncc([C@@H]2CCON2C(=O)[C@H]2CC[C@H](COc3ccc(F)c(C(N)=O)c3)CC2)c1 [Compound 74, trans-5-((4-((S)-3-(5-cyanopyridin-3-yl)isoxazolidine-2-carbonyl)cyclohexyl)methoxy)-2-fluorobenzamide] | 82
43 | N#Cc1cncc([C@@H]2CCON2C(=O)[C@H]2CC[C@H](COc3ccc(Cl)c(C(N)=O)c3)CC2)c1 [Compound 75, trans-2-chloro-5-((4-((S)-3-(5-cyanopyridin-3-yl)isoxazolidine-2-carbonyl)cyclohexyl)methoxy)benzamide] | 224
47 | Cc1cc(C)n(-c2ccc(OC[C@H]3CC[C@H](C(=O)N4OCC[C@H]4c4cc(F)cc(C#N)c4)CC3)c(F)c2)n1 [Compound 76, trans-3-((S)-2-(4-((4-(3,5-dimethyl-1H-pyrazol-1-yl)-2-fluorophenoxy)methyl)cyclohexane-1-carbonyl)isoxazolidin-3-yl)-5-fluorobenzonitrile] | 47
53 | N#Cc1cc(F)cc([C@@H]2CCON2C(=O)[C@H]2CC[C@H](COc3cccc(S(N)(=O)=O)c3)CC2)c1 [Compound 77, trans-3-((4-((S)-3-(3-cyano-5-fluorophenyl)isoxazolidine-2-carbonyl)cyclohexyl)methoxy)benzenesulfonamide] | 48
43 | Cn1ccn(-c2ccc(OC[C@H]3CC[C@H](C(=O)N4OCC[C@H]4c4cc(F)cc(C#N)c4)CC3)c(F)c2)c1=O [Compound 78, trans-3-fluoro-5-((S)-2-(4-((2-fluoro-4-(3-methyl-2-oxo-2,3-dihydro-1H-imidazol-1-yl)phenoxy)methyl)cyclohexane-1-carbonyl)isoxazolidin-3-yl)benzonitrile] | 9
